Measured values from the supplement of paper PMC10307832.

How the values were obtained:
Test in all cases: relative viability (nuclei count vs DMSO), 5 days (fraction); higher = more cells survive
[1] = compound: C[As](C)SC[C@H](NC(=O)CC[C@H](N)C(=O)O)C(=O)NCC(=O)O [Darinaparsin]
How it was run: (§1)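 Lung cancer cell lines in 1536-well plates were kept overnight at 37 °C, then pinned with five library-drug doses (not always all listed) spaced by √10 on vehicle-anchored plates. After 5 days without medium change, cells were fixed, permeabilised and Hoechst-stained in one step, imaged at 4×, and nuclei were counted with MetaXpress. Viability is treated-well nuclei divided by vehicle-well nuclei, taken as the median over plates. Plates passed only with control CV below 25% and at least one doubling.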

[2] = compound: C1CC2=C(C1)C=C(C=C2)OC3=NC(=C4C(=N3)N(C=N4)CC5=CC=C(C=C5)C6=CC=CC=C6)N[C@@H](CC7=CC=CC=C7)CO [QS11]
How it was run: as §1

[3] = compound: CC1=C(C=C(C=C1)NC(=O)C2=CC(=CC=C2)C(C)(C)C#N)NC3=CC4=C(C=C3)N=CN(C4=O)C [AZ628]
How it was run: as §1

Cell Line | relative viability ([1]; 0.08 µM) | relative viability ([1]; 0.8 µM) | relative viability ([1]; 2.53 µM) | relative viability ([1]; 8 µM) | relative viability ([2]; 0.08 µM) | relative viability ([2]; 0.253 µM) | relative viability ([2]; 0.8 µM) | relative viability ([2]; 2.53 µM) | relative viability ([2]; 8 µM) | relative viability ([3]; 0.08 µM) | relative viability ([3]; 0.253 µM) | relative viability ([3]; 0.8 µM) | relative viability ([3]; 2.53 µM) | relative viability ([3]; 8 µM)
LK-2 | 1.16 | 0.83 | 0.982 | 1.26 | 0.99 | 1.21 | 1.09 | 0.956 | 1.3 | 1.29 | 0.983 | 0.977 | 0.857 | 0.467
LOU-NH91 | 1.03 | 0.921 | 0.954 | 1.02 | 0.979 | 0.93 | 0.78 | 0.98 | 0.966 | 0.971 | 0.926 | 0.958 | 0.963 | 0.797
LU99A | 0.929 | 1.05 | 0.991 | 1.09 | 0.868 | 0.99 | 1.02 | 1.02 | 0.834 | 0.883 | 0.807 | 0.875 | 1.03 | 0.65
LXF-289 | 1.04 | 0.994 | 0.941 | 1.13 | 1 | 1.04 | 0.732 | 0.902 | 0.809 | 1 | 0.986 | 0.906 | 0.98 | 0.722
NCI-H23 | 1.06 | 0.843 | 1.11 | 1.14 | 0.995 | 0.85 | 0.832 | 0.832 | 0.831 | 1.01 | 0.838 | 0.721 | 0.799 | 0.543
NCI-H322M | 1.02 | 0.951 | 0.767 | 1.03 | 0.923 | 0.904 | 0.998 | 1.15 | 1.41 | 1.1 | 0.952 | 0.986 | 0.95 | 0.788
NCI-H358 | 1.07 | 0.872 | 0.832 | 0.984 | 0.92 | 0.99 | 1.11 | 1.37 | 1.01 | 0.846 | 0.654 | 0.598 | 0.583 | 0.435
NCI-H441 | 1.49 | 1.14 | 0.991 | 1.26 | 0.978 | 1.04 | 0.92 | 0.985 | 0.855 | 0.932 | 1.02 | 0.988 | 1.06 | 0.787
NCI-H460 | 1.1 | 1 | 0.997 | 1.35 | 1.05 | 1.02 | 0.777 | 0.96 | 0.796 | 0.977 | 0.996 | 0.908 | 1.04 | 0.673
NCI-H520 | 1.12 | 0.947 | 0.833 | 1.09 | 0.864 | 1.04 | 1.12 | 1.11 | 1.14 | 1.06 | 0.994 | 0.937 | 0.937 | 0.878
NCI-H522 | 0.969 | 0.992 | 0.972 | 1.07 | 0.872 | 0.96 | 0.934 | 0.944 | 0.875 | 0.922 | 0.827 | 0.755 | 1.11 | 0.815
NCI-H596 | 0.937 | 1.05 | 0.938 | 1.05 | 0.931 | 0.833 | 1.15 | 0.969 | 1.09 | 1.05 | 1.03 | 1.1 | 1.06 | 1.01
NCI-H647 | 1.08 | 0.962 | 0.896 | 1.26 | 0.979 | 0.856 | 0.917 | 0.956 | 0.769 | 1.01 | 0.962 | 0.798 | 0.936 | 0.732
NCI-H650 | 0.988 | 1.01 | 0.967 | 0.947 | 0.841 | 0.908 | 1.01 | 0.932 | 0.89 | 1.13 | 1.05 | 1.3 | 1.1 | 1.26
NCI-H661 | 0.999 | 1.01 | 1.03 | 1.12 | 0.992 | 0.977 | 0.853 | 1.01 | 1.03 | 1.08 | 1.05 | 0.861 | 0.938 | 0.842
NCI-H727 | 0.895 | 0.884 | 0.986 | 1.04 | 0.989 | 0.975 | 0.867 | 0.935 | 0.752 | 0.777 | 0.531 | 0.389 | 0.543 | 0.294
NCI-H838 | 0.997 | 0.931 | 0.991 | 1.14 | 0.99 | 0.915 | 0.784 | 0.908 | 0.872 | 1.02 | 0.992 | 0.951 | 0.932 | 0.868
NCI-H1299 | 1.07 | 1.01 | 0.978 | 1.12 | 1.07 | 1.04 | 0.91 | 0.94 | 0.797 | 1.1 | 1.09 | 1.04 | 1.2 | 0.84
NCI-H1355 | 1.06 | 0.939 | 0.865 | 1.1 | 0.933 | 0.918 | 0.769 | 0.981 | 0.986 | 1.02 | 0.975 | 0.956 | 0.938 | 0.781
NCI-H1395 | 0.995 | 0.883 | 0.815 | 0.938 | 0.833 | 0.976 | 1 | 0.881 | 0.986 | 1.02 | 0.794 | 0.92 | 0.92 | 0.832
NCI-H1437 | 1.08 | 1.02 | 0.973 | 1.21 | 0.965 | 1.02 | 0.752 | 0.901 | 0.929 | 0.988 | 0.938 | 0.858 | 1.01 | 1.01
NCI-H1563 | 1.05 | 0.948 | 0.996 | 1.04 | 0.951 | 1.02 | 0.965 | 1.12 | 0.971 | 0.997 | 0.925 | 0.991 | 0.952 | 1.05
NCI-H1623 | 0.925 | 1.06 | 0.975 | 1.02 | 0.912 | 1.03 | 0.862 | 0.871 | 1.04 | 0.992 | 0.979 | 0.604 | 0.858 | 0.615
NCI-H1648 | 0.735 | 0.803 | – | 0.975 | 0.748 | 0.972 | 0.744 | 0.978 | 1.11 | 1.14 | 1.08 | 0.726 | 0.597 | 0.641
